Experimental data published in US20090281156A1, “ENHANCING PHOTOSTABILIZATION OF OXYMETAZOLINE” (Schering-Plough Healthcare Products, Inc,, priority 2007, published 2009).
Where a name gives a salt, the structure may show the parent alone.

Tests used:
[1] = in vivo; cited from earlier work
[2] = exemplary conventional formulation; cited from earlier work
[3] = ICH photostability testing of oxymetazoline HCl solutions (quartz container, twice ICH exposure); assay type: physicochemical; settings: for drug degraded after UV light exposure: McIlvaine buffer pH=6
Experimental: 0.05% (w/v) oxymetazoline HCl solutions with pH ranging from 4 to 6 were prepared using McIlvaine buffer systems (Solutions I-III). At each pH level, 0.05% oxymetazoline HCl solutions containing either Povidone 29-32 (approximately 3% w/v) or PEG 1450 (approximately 5% w/v) were also made ([…]).
Example embodiments were tested for photostability according to methods described in ICH Harmonized Tripartite Guidelines Stability Testing: Photostability Testing of New Drug Substances and Products. Each sample for photostability studies was placed in an enclosed quartz container and exposed to twice the exposure required by ICH photostability guideline (total exposure of 2.4 million lux hours and an integrated near UV energy of 400 watt hours/square meter).
All of the observed oxymetazoline HCl degradation peaks were calculated and presented in percentage.

CN1CCC(=C2c3ccccc3CCc3cccnc32)CC1 [Azatadine]
elimination half-life [1]: 9 to 12 h

CCOC(=O)N1CCC(=C2c3ccc(Cl)cc3CCc3cccnc32)CC1 [loratadine]
antihistaminic effect lasts [2]: > 24 h

Cc1cc(C(C)(C)C)c(O)c(C)c1CC1=NCCN1 [oxymetazoline HCl, 6-tert-butyl-3-(2-imidazolin-2-ylmethyl)-2,4-dimentylphenol hydrochloride]
drug degraded after UV light exposure ([3]; 24 hours of UV light exposure): roughly 9%
drug degraded after UV light exposure ([3]; 40 hours of UV light exposure): ~72%
light sensitivity ([3]; aqueous solution): light sensitive
increase in the total degradation on incorporating PEG 1450 ([3]; pH 5, T=40 hours, PEG 1450 approximately 5% w/v): roughly 4 fold
increase in the total photodegradation in presence of Povidone K29-32 ([3]; pH=6, T=40 hours, Povidone K29-32 approximately 3% w/v): about 21%
